Experimental data as given in US10676465B2, “GLP-1 receptor agonists and uses thereof” (Pfizer Inc., priority 2018, dated 2020).
Where two headings read alike, the source gives them in different places.

What was measured:
human GLP-1R [1] = target: human GLP-1R (Homo sapiens, UniProt P43220, G168S); assay: CHO GLP-1R Clone H6 - Assay 1 (HTRF cAMP agonist assay); type: cell-based; conditions: for EC50: CHO GLP-1R Clone H6, cAMP HTRF, geometric mean; for Emax / Assay 1 Emax (%): CHO GLP-1R Clone H6, arithmetic mean, relative to saturating GLP-1 (1 μM)
Sequence of human GLP-1R (Homo sapiens, UniProt P43220, G168S) (P43220 24-463 G168S limits assumed): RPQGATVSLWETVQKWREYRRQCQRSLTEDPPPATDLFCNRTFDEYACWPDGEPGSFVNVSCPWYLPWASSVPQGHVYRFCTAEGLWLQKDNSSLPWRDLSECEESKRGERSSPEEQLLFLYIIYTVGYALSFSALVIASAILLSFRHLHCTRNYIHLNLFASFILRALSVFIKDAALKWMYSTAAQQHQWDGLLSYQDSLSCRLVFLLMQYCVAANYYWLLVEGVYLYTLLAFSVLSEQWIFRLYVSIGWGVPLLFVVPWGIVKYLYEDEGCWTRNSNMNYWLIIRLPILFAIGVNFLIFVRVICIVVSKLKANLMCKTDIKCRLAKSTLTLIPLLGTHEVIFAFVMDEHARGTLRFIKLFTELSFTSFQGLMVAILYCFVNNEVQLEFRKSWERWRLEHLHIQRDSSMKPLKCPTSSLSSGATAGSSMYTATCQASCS
Method: GLP-1R-mediated agonist activity was determined with a cell-based functional assay utilizing an HTRF (Homogeneous Time-Resolved Fluorescence) cAMP detection kit (cAMP HI Range Assay Kit; CisBio cat #62AM6PEJ) that measures cAMP levels in the cell. The method is a competitive immunoassay between native cAMP produced by the cells and exogenous cAMP labeled with the dye d2. The tracer binding is visualized by a mAb anti-cAMP labeled with Cryptate. The specific signal (i.e. energy transfer) is inversely proportional to the concentration of cAMP in either standard or experimental sample.
The human GLP-1R coding sequence (NCBI Reference Sequence NP_002053.3, including naturally-occurring variant Gly168Ser) was subcloned into pcDNA3 (Invitrogen) and a cell line stably expressing the receptor was isolated (designated Clone H6).
Cells were removed from cryopreservation, re-suspended in 40 mL of Dulbecco's Phosphate Buffered Saline (DPBS—Lonza Cat #17-512Q) and centrifuged at 800×g for 5 minutes at 22° C. The cell pellet was then re-suspended in 10 mL of growth medium [DMEM/F12 1:1 Mixture with HEPES, L-Gln, 500 mL (DMEM/F12 Lonza Cat #12-719F), 10% heat inactivated fetal bovine serum (Gibco Cat #16140-071), 5 mL of 100× Pen-Strep (Gibco Cat #15140-122), 5 mL of 100×L-Glutamine (Gibco Cat #25030-081) and 500 μg/mL Geneticin (G418) (Invitrogen #10131035)]. A 1 mL sample of the cell suspension in growth media was counted on a Becton Dickinson ViCell to determine cell viability and cell count per mL. The remaining cell suspension was then adjusted with growth media to deliver 2000 viable cells per well using a Matrix Combi Multidrop reagent dispenser, and the cells were dispensed into a white 384 well tissue culture treated assay plate (Corning 3570). The assay plate was then incubated for 48 hours at 37° C. in a humidified environment in 5% carbon dioxide.
Varying concentrations of each compound to be tested (in DMSO) were diluted in assay buffer (HBSS with Calcium/Magnesium (Lonza/BioWhittaker cat #10-527F)/0.1% BSA (Sigma Aldrich cat # A7409-1L)/20 mM HEPES (Lonza/BioWhittaker cat #17-737E) containing 100 μM 3-isobutyl-1-methylxanthin (IBMX; Sigma cat #15879). The final DMSO concentration is 1%.
After 48 hours, the growth media was removed from the assay plate wells, and the cells were treated with 20 μL of the serially diluted compound in assay buffer for 30 minutes at 37° C. in a humidified environment in 5% carbon dioxide. Following the 30 minute incubation, 10 μL of labeled d2 cAMP and 10 μL of anti-cAMP antibody (both diluted 1:20 in cell lysis buffer; as described in the manufacturer's assay protocol) were added to each well of the assay plate. The plates were then incubated at room temperature and after 60 minutes, changes in the HTRF signal were read with an Envision 2104 multi-label plate reader using excitation of 330 nm and emissions of 615 and 665 nm. Raw data were converted to nM cAMP by interpolation from a cAMP standard curve (as described in the manufacturer's assay protocol) and the percent effect was determined relative to a saturating concentration of the full agonist GLP-17-36 (1 μM) included on each plate. EC50 determinations were made from agonist dose-response curves analyzed with a curve fitting program using a 4-parameter logistic dose response equation.

human GLP-1R [2] = target: human GLP-1R (Homo sapiens (Human), UniProt P43220, L260F); assay: CHO GLP-1R Clone C6 - Assay 2 (HTRF cAMP agonist assay, low receptor density); conditions: for EC50 / Assay 2 Emax (%): CHO GLP-1R Clone C6 (low receptor density); for EC50: cAMP HTRF, geometric mean; for Emax: read-out: Assay 2 Emax (%), CHO GLP-1R Clone C6 (low receptor density); for Emax / Assay 2 Emax (%): arithmetic mean, relative to saturating GLP-1 (1 μM)
Sequence of human GLP-1R (Homo sapiens (Human), UniProt P43220, L260F) (P43220 24-463 L260F): as the sequence (P43220 24-463 G168S limits assumed) above, with S145G, L237F counted along it

Compound | EC50 (human GLP-1R [1]) [nM] | Emax (human GLP-1R [1]) [%] | EC50 (human GLP-1R [2]; read-out: Assay 2 EC50) [nM] | Emax (human GLP-1R [2]) [%] | EC50 (human GLP-1R [2]; Assay 2 EC50 (nM)) [nM] | Assay 1 Emax (%) (human GLP-1R [1]) | Assay 2 Emax (%) (human GLP-1R [2])
CC1(c2ccc(Cl)cc2F)Oc2cccc(C3CCN(Cc4nc5ccc(C(=O)O)cc5n4CCN4CCCC4=O)CC3)c2O1 (stereo not shown) [Example 48, 2-({4-[2-(4-chloro-2-fluorophenyl)-2-methyl-1,3-benzodioxol-4-yl]piperidin-1-yl}methyl)-1-[2-(2-oxopyrrolidin-1-yl)ethyl]-1H-benzimidazole-6-carboxylic acid] | 14 | 81 | 280 | 73 | – | – | –
CC1(c2ccc(Cl)cc2F)Oc2c(F)ccc(C3CCN(Cc4nc5ccc(C(=O)O)cc5n4C[C@@H]4CCO4)CC3)c2O1 (single isomer, unassigned) [Example 96] | 1.1 | 85 | – | 93 | 11 | – | –
COCCn1c(C2CC23CCN(c2cccc4c2OC(C)(c2ccc(Cl)cc2F)O4)CC3)nc2ccc(C(=O)O)cc21 (single isomer, unassigned) [Example 15, 2-{6-[2-(4-Chloro-2-fluorophenyl)-2-methyl-1,3-benzodioxol-4-yl]-6-azaspiro[2.5]oct-1-yl}-1-(2-methoxyethyl)-1H-benzimidazole-6-carboxylic Acid] | > 18000 | 100 | – | – | > 20000 | – | –
CC1(c2ccc(Cl)cc2F)Oc2c(F)ccc(C3CCN(Cc4nc5ccc(C(=O)O)cc5n4C[C@@H]4CCO4)CC3)c2O1 (single isomer, unassigned) [Example 97] | 14 | – | – | – | 140 | 86 | 93
COCCn1c(CN2CCC(c3cccc4c3OC(C)(c3ccccc3)O4)CC2)nc2ccc(C(=O)O)cc21 (stereo not shown) [Example 82, 1-(2-methoxyethyl)-2-{[4-(2-methyl-2-phenyl-1,3-benzodioxol-4-yl)piperidin-1-yl]methyl}-1H-benzimidazole-6-carboxylic acid] | 47 | 83 | 1000 | 83 | – | – | –
COCCn1c(CN2CCC(c3cccc4c3OC(c3ccc(Cl)cc3F)O4)CC2)nc2ccc(C(=O)O)cc21 (stereo not shown) [Example 21, 2-({4-[2-(4-chloro-2-fluorophenyl)-1,3-benzodioxol-4-yl]piperidin-1-yl}methyl)-1-(2-methoxyethyl)-1H-benzimidazole-6-carboxylic acid] | > 20000 | – | – | – | > 20000 | – | –
CC1(c2ccc(Cl)cc2F)Oc2cccc(C3CCN(Cc4nc5ccc(C(=O)O)cc5n4Cc4ccccn4)CC3)c2O1 (stereo not shown) [Example 45, 2-({4-[2-(4-chloro-2-fluorophenyl)-2-methyl-1,3-benzodioxol-4-yl]piperidin-1-yl}methyl)-1-(pyridin-2-ylmethyl)-1H-benzimidazole-6-carboxylic acid] | 9.9 | 81 | 220 | 79 | – | – | –
COCCn1c(CN2CCC(c3cccc4c3OC(c3ccc(C#N)cc3F)O4)CC2)nc2ccc(C(=O)O)cc21 (stereo not shown) [Example 27, 2-({4-[2-(4-cyano-2-fluorophenyl)-1,3-benzodioxol-4-yl]piperidin-1-yl}methyl)-1-(2-methoxyethyl)-1H-benzimidazole-6-carboxylic acid] | 61 | 98 | 1000 | 100 | – | – | –
COCCn1c(CN2CCC(c3cccc4c3OC(C)(c3ccc(Cl)cc3F)O4)CC2)nc2ncc(C(=O)O)cc21 (stereo not shown) [Example 3, 2-({4-[2-(4-Chloro-2-fluorophenyl)-2-methyl-1,3-benzodioxol-4-yl]piperidin-1-yl}methyl)-1-(2-methoxyethyl)-1H-imidazo[4,5-b]pyridine-6-Carboxylic Acid] | 1.3 | 94 | 45 | 120 | – | – | –
CCn1ccnc1Cn1c(CN2CCC(c3cccc4c3OC(C)(c3ccc(Cl)cc3F)O4)CC2)nc2ccc(C(=O)O)cc21 (stereo not shown) [Example 51, 2-({4-[2-(4-chloro-2-fluorophenyl)-2-methyl-1,3-benzodioxol-4-yl]piperidin-1-yl}methyl)-1-[(1-ethyl-1H-imidazol-2-yl)methyl]-1H-benzimidazole-6-carboxylic acid] | 19 | 80 | 280 | 81 | – | – | –
CN(CCn1c(CN2CCC(c3cccc4c3OC(C)(c3ccc(Cl)cc3F)O4)CC2)nc2ccc(C(=O)O)cc21)S(C)(=O)=O (stereo not shown) [Example 71, 2-({4-[2-(4-chloro-2-fluorophenyl)-2-methyl-1,3-benzodioxol-4-yl]piperidin-1-yl}methyl)-1-{2-[methyl(methylsulfonyl)amino]ethyl}-1H-benzimidazole-6-carboxylic acid] | 6.8 | 80 | 74 | 80 | – | – | –
COCCn1c(CN2CCC(c3cccc4c3OC(C)(c3ccc(C(F)(F)F)cc3)O4)CC2)nc2ccc(C(=O)O)cc21 (stereo not shown) [Example 40, 1-(2-methoxyethyl)-2-[(4-{2-methyl-2-[4-(trifluoromethyl)phenyl]-1,3-benzodioxol-4-yl}piperidin-1-yl)methyl]-1H-benzimidazole-6-carboxylic acid] | 14 | 88 | 130 | 73 | – | – | –
Cn1ncnc1Cn1c(CN2CCC(c3cccc4c3OC(C)(c3ccc(Cl)cc3F)O4)CC2)nc2ccc(C(=O)O)cc21 (stereo not shown) [Example 57, 2-({4-[2-(4-chloro-2-fluorophenyl)-2-methyl-1,3-benzodioxol-4-yl]piperidin-1-yl}methyl)-1-[(1-methyl-1H-1,2,4-triazol-5-yl)methyl]-1H-benzimidazole-6-carboxylic acid] | 15 | 86 | 500 | 98 | – | – | –
COCCn1c(C2CC23CCN(c2cccc4c2OC(C)(c2ccc(Cl)cc2F)O4)CC3)nc2ccc(C(=O)O)cc21 (single isomer, unassigned) [Example 26, 2-{6-[2-(4-chloro-2-fluorophenyl)-2-methyl-1,3-benzodioxol-4-yl]-6-azaspiro[2.5]oct-1-yl}-1-(2-methoxyethyl)-1H-benzimidazole-6-carboxylic acid] | > 20000 | – | – | – | > 20000 | – | –
COCCn1c(CN2CCC(c3cccc4c3OC(C)(c3ccccc3Cl)O4)CC2)nc2ccc(C(=O)O)cc21 (stereo not shown) [Example 86, 2-({4-[2-(2-chlorophenyl)-2-methyl-1,3-benzodioxol-4-yl]piperidin-1-yl}methyl)-1-(2-methoxyethyl)-1H-benzimidazole-6-carboxylic acid] | 24 | 91 | 410 | 100 | – | – | –
COCCn1c(CN2CCC(c3cccc4c3OC(C)(c3ccc(C)nc3)O4)CC2)nc2ccc(C(=O)O)cc21 (stereo not shown) [Example 42, 1-(2-methoxyethyl)-2-({4-[2-methyl-2-(6-methylpyridin-3-yl)-1,3-benzodioxol-4-yl]piperidin-1-yl}methyl)-1H-benzimidazole-6-carboxylic acid] | 120 | 93 | 1700 | 83 | – | – | –
CCc1ccc(C2(C)Oc3cccc(C4CCN(Cc5nc6ccc(C(=O)O)cc6n5CCOC)CC4)c3O2)cc1 (stereo not shown) [Example 29, 2-({4-[2-(4-ethylphenyl)-2-methyl-1,3-benzodioxol-4-yl]piperidin-1-yl}methyl)-1-(2-methoxyethyl)-1H-benzimidazole-6-carboxylic acid] | 5.3 | 87 | 150 | 93 | – | – | –
CCn1cncc1Cn1c(CN2CCC(c3cccc4c3O[C@](C)(c3ccc(Cl)cc3F)O4)CC2)nc2ccc(C(=O)O)cc21 (single isomer, unassigned) [Example 18, Ammonium 2-({4-[2-(4-chloro-2-fluorophenyl)-2-methyl-1,3-benzodioxol-4-yl]piperidin-1-yl}methyl)-1-[(I-ethyl-1H-imidazol-5-yl)methyl]-1H-benzimidazole-6-carboxylate] | 210 | – | 1000 | – | – | – | 87
COCCn1c(CN2CCC(c3cccc4c3OC(C)(c3ccc(OC)cc3F)O4)CC2)nc2ccc(C(=O)O)cc21 (stereo not shown) [Example 35, 2-({4-[2-(2-fluoro-4-methoxyphenyl)-2-methyl-1,3-benzodioxol-4-yl]piperidin-1-yl}methyl)-1-(2-methoxyethyl)-1H-benzimidazole-6-carboxylic acid] | 6.6 | 86 | 170 | 89 | – | – | –
CC1(c2ccc(Cl)cc2F)Oc2cccc(C3CCN(Cc4nc5ccc(C(=O)O)cc5n4Cc4cn[nH]c4)CC3)c2O1 (stereo not shown) [Example 73, 2-({4-[2-(4-chloro-2-fluorophenyl)-2-methyl-1,3-benzodioxol-4-yl]piperidin-1-yl}methyl)-1-(1H-pyrazol-4-ylmethyl)-1H-benzimidazole-6-carboxylic acid] | 1.7 | 98 | 10 | 100 | – | – | –
COCCn1c(CN2CCC(c3cccc4c3OC(C)(c3ccc(Cl)cn3)O4)CC2)nc2ccc(C(=O)O)cc21.N (stereo not shown) [Example 92, ammonium 2-({4-[2-(5-chloropyridin-2-yl)-2-methyl-1,3-benzodioxol-4-yl]piperidin-1-yl}methyl)-1-(2-methoxyethyl)-1H-benzimidazole-6-carboxylate] | 4.2 | – | 72 | 83 | – | 90 | –
COCCn1c(CN2CCC(c3cccc4c3OC(C)(c3ccccn3)O4)CC2)nc2ccc(C(=O)O)cc21 (stereo not shown) [Example 89, 1-(2-methoxyethyl)-2-({4-[2-methyl-2-(pyridin-2-yl)-1,3-benzodioxol-4-yl]piperidin-1-yl}methyl)-1H-benzimidazole-6-carboxylic acid] | 130 | 85 | 2900 | 87 | – | – | –
